pIC50: −log10 of the molar value.

The target in one test is PIK3CB (Human) (UniProt P42338). Description: Enzyme Assay.
The target of another test is PIK3CG (human) (UniProt P48736). Description: Enzyme Assay.
Another test addresses PIK3CD (Human) (UniProt O00329). The experiment in a line: Cell-Based Assay. The conditions noted are these: raji.
In another test the target is PIK3CA (human) (UniProt P42336). Description: Enzyme Assay.
PIK3CA (human), sequence (P42336 whole entry, looked up): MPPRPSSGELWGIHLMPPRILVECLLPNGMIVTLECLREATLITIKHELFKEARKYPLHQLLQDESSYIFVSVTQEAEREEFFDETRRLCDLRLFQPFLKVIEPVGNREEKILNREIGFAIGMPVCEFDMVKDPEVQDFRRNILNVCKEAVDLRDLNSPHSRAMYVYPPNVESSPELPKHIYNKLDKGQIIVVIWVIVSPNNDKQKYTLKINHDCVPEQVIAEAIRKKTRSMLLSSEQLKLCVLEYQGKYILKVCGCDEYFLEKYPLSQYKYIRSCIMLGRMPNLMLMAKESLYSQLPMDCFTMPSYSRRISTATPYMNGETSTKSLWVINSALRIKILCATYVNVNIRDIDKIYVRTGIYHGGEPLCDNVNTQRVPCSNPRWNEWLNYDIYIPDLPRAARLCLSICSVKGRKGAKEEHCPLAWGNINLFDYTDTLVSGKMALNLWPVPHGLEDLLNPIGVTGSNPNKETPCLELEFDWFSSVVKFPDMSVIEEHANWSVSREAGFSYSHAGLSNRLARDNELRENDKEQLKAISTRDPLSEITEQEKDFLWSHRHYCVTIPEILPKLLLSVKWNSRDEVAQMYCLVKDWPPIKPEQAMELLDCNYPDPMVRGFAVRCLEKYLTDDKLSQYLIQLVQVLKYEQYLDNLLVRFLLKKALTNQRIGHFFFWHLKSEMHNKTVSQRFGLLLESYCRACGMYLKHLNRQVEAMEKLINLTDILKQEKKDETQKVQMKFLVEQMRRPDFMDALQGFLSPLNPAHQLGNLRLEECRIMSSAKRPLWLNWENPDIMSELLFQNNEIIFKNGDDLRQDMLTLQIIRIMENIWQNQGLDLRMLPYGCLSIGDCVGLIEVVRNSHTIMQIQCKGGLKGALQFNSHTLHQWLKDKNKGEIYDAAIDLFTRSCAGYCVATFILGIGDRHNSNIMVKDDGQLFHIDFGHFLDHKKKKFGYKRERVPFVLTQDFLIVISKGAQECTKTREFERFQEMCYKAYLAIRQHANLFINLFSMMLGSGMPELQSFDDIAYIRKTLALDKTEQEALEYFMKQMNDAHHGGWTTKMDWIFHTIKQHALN

PIK3CD (Human), sequence (O00329 whole entry, looked up): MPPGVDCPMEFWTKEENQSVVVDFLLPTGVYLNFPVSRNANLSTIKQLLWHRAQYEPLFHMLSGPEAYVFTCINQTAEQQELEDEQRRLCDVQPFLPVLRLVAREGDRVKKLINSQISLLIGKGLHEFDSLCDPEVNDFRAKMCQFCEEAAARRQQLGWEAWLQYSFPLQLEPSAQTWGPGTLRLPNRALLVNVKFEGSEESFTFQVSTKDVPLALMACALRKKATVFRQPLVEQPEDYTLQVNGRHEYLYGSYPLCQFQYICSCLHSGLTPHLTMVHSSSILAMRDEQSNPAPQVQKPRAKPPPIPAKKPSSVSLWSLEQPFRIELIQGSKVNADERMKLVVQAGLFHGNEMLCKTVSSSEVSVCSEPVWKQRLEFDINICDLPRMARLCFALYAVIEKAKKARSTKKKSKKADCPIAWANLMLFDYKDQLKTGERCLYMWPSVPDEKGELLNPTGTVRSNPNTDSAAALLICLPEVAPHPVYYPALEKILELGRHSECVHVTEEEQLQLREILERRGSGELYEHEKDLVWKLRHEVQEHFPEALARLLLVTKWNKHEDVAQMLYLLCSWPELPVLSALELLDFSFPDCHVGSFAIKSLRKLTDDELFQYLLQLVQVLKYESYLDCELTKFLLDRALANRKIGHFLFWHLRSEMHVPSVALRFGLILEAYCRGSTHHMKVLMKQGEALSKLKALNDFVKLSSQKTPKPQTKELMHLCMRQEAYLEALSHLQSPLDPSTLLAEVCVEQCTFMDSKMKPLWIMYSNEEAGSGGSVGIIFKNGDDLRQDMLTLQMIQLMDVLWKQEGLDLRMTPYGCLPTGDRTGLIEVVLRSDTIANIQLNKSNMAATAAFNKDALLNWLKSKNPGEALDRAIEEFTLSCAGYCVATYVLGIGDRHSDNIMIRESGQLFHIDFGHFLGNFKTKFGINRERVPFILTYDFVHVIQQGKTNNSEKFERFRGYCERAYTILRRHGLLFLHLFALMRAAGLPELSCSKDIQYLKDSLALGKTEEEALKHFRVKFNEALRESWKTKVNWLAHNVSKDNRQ
PIK3CG (human), sequence (P48736 whole entry, looked up): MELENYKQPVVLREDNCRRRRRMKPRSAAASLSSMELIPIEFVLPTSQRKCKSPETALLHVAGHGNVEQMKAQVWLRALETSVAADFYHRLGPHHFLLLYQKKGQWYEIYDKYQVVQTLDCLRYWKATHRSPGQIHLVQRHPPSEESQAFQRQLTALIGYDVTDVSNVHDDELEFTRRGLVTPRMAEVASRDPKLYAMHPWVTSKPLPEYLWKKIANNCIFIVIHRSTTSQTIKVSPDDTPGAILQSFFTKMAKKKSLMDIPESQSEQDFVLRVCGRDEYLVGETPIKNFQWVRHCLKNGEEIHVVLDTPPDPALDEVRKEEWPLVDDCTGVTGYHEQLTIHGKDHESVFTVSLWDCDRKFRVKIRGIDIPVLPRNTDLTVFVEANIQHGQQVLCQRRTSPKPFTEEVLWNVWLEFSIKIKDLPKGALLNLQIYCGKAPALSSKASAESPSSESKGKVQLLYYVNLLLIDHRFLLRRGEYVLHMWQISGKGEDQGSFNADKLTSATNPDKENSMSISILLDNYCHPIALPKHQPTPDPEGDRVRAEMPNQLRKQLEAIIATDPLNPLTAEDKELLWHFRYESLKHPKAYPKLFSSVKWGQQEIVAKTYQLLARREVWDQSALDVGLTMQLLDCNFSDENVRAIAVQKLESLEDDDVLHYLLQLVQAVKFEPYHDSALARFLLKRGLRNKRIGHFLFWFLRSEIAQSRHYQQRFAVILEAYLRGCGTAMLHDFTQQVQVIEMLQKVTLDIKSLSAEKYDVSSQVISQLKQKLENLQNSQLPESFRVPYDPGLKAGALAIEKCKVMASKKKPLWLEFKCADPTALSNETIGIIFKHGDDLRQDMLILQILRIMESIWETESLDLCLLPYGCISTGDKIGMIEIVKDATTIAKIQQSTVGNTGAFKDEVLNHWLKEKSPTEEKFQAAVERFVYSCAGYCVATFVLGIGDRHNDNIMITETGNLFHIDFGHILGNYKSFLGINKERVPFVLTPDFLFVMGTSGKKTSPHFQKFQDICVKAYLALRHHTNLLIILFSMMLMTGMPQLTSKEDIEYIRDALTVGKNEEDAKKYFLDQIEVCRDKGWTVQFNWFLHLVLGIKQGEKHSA
PIK3CB (Human), sequence (P42338 whole entry, looked up): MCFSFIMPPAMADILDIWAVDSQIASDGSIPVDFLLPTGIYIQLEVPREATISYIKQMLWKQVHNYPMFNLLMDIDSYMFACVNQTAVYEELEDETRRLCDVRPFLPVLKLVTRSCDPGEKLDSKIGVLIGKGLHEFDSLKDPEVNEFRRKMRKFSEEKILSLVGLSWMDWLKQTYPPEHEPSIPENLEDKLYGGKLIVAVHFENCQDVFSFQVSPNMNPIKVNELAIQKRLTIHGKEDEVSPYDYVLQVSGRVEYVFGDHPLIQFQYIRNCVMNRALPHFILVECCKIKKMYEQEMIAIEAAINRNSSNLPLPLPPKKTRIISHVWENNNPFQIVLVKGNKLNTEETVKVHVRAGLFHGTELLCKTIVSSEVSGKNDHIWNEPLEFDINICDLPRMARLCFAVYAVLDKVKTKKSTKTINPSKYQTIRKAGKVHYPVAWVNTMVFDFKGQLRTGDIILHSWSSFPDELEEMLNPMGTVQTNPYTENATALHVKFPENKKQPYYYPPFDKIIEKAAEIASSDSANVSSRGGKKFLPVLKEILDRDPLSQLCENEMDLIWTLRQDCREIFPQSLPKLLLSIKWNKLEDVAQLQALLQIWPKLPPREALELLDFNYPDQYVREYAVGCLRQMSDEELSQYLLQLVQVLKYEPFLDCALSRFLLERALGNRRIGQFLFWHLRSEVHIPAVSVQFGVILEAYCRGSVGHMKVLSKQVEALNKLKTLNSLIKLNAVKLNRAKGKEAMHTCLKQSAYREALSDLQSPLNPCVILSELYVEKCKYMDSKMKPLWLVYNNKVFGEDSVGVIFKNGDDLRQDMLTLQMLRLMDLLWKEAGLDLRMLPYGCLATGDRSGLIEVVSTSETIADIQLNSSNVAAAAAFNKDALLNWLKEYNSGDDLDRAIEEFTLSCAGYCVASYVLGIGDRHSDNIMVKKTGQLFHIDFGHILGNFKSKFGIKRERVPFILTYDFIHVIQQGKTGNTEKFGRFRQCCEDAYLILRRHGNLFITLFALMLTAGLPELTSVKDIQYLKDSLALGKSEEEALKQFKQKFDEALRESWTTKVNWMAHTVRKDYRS

Consider `C[C@H](NC(=O)c1nc(-c2cccc(NS(C)(=O)=O)c2)cnc1N)c1cc2cccc(Cl)c2c(=O)n1-c1ccccc1`, for which the pIC50 on PIK3CB (Human) is 6.00 to 7.00; against PIK3CG (human) it was above 7.00; on PIK3CD (Human), above 7.00.

Take `CNCc1cccc2cc([C@H](C)NC(=O)c3c(N)nn4cccnc34)n(-c3ccccc3)c(=O)c12`: the pIC50 at PIK3CA (human), against PIK3CB (Human) and against PIK3CG (human) was at most 5.00 each time.

`C[C@H](NC(=O)c1c(N)nn2cccnc12)c1cc2ccccc2c(=O)n1-c1ccccc1`: the pIC50 is at most 5.00 against PIK3CA (human), 6.00 to 7.00 at PIK3CG (human) and 6.00 to 7.00 on PIK3CD (Human).

Consider `CC(C)Oc1ccc(-c2cnc(N)c(C(=O)N[C@@H](C)c3cc4cccc(Cl)c4c(=O)n3-c3ccccc3)n2)cn1`, for which the pIC50 at PIK3CA (human) was at most 5.00; against PIK3CB (Human) it was at most 5.00; on PIK3CD (Human) it was 6.00 to 7.00.

Regarding `COc1cccc2c(C)c([C@H](C)NC(=O)c3c(N)nn4cccnc34)n(-c3ccccc3)c(=O)c12`, the pIC50 against PIK3CA (human) is at most 5.00; against PIK3CB (Human) it was at most 5.00; at PIK3CG (human), 6.00 to 7.00.

For `C[C@H](NC(=O)c1c(N)nn2cccnc12)c1cc2cccc(-c3cncs3)c2c(=O)n1-c1ccccc1`, the results for the pIC50 against PIK3CB (Human), on PIK3CG (human) and on PIK3CD (Human) were at most 5.00, 6.00 to 7.00 and above 7.00, respectively.

Take `CC(=O)Nc1cccc(-c2cccc3cc([C@H](C)NC(=O)c4c(N)nn5cccnc45)n(-c4ccccc4)c(=O)c23)c1`: the pIC50 against PIK3CB (Human) is at most 5.00; against PIK3CG (human), 6.00 to 7.00; against PIK3CD (Human), above 7.00.

Regarding `C[C@H](NC(=O)c1c(N)nn2cccnc12)c1cc2cccc(C#CCCNC(=O)[C@@H]3CCC(=O)O3)c2c(=O)n1-c1ccccc1`, the pIC50 was at most 5.00 against PIK3CB (Human), 6.00 to 7.00 against PIK3CG (human) and above 7.00 against PIK3CD (Human).

Turning to `C[C@H](NC(=O)c1cnn2cccnc12)c1cc2cccc(C#CCNC(=O)[C@@H]3CCCO3)c2c(=O)n1-c1ccccc1`, the pIC50 at PIK3CA (human) was 6.00 to 7.00; against PIK3CB (Human) it was 6.00 to 7.00; against PIK3CG (human), above 7.00; at PIK3CD (Human) it was above 7.00.

On to `C[C@H](NC(=O)c1c(N)nn2cccnc12)c1cc2cccc(OC(F)(F)F)c2c(=O)n1-c1ccccc1`, for which the pIC50 against PIK3CA (human) and against PIK3CB (Human) was at most 5.00 in each case.

On to `C[C@H](NC(=O)c1c(N)nn2cccnc12)c1cc2cccc(/C=N\O)c2c(=O)n1-c1ccccc1`, for which the pIC50 is at most 5.00 against PIK3CA (human), at most 5.00 at PIK3CB (Human) and 6.00 to 7.00 at PIK3CG (human).

In the case of `C[C@H](NC(=O)c1c(N)nn2cccnc12)c1cc2cccc(C=O)c2c(=O)n1-c1ccccc1`, the pIC50 against PIK3CA (human) is at most 5.00; at PIK3CD (Human), 6.00 to 7.00.

Regarding `Cc1ccn2ncc(C(=O)N[C@@H](C)c3cc4cccc(Cl)c4c(=O)n3-c3ccccc3)c2n1`, the negative-log IC50 (pIC50) on PIK3CA (human) is at most 5.00; against PIK3CD (Human), 6.00 to 7.00.

For the compound `CC(C)Oc1cc(-c2cccc3cc([C@H](C)NC(=O)c4c(N)nn5cccnc45)n(-c4ccccc4)c(=O)c23)ccn1`, the values for the pIC50 against PIK3CA (human), against PIK3CG (human) and at PIK3CD (Human) were at most 5.00, 6.00 to 7.00 and above 7.00, respectively.

On to `Cc1cnc(N)c(C(=O)N[C@@H](C)c2cc3cccc(Cl)c3c(=O)n2-c2ccccc2)n1`, for which the pIC50 at PIK3CA (human) is at most 5.00; at PIK3CD (Human), 6.00 to 7.00.

On to `C[C@H](NC(=O)c1c(N)nn2cccnc12)c1cc2cccc(C3CC3)c2c(=O)n1-c1ccccc1`, for which the pIC50 against PIK3CA (human) is at most 5.00; at PIK3CB (Human), at most 5.00; against PIK3CD (Human), 6.00 to 7.00.

Regarding `CC(C)NS(=O)(=O)c1cccc(-c2cnc(N)c(C(=O)N[C@@H](C)c3cc4cccc(Cl)c4c(=O)n3-c3ccccc3)n2)c1`, the pIC50 on PIK3CB (Human) is 6.00 to 7.00; on PIK3CG (human) it was 6.00 to 7.00; at PIK3CD (Human), above 7.00.

In the case of `C[C@H](NC(=O)c1c(N)nn2cccnc12)c1cc2cccc(C#N)c2c(=O)n1-c1ccccc1`, the pIC50 at PIK3CA (human) was at most 5.00; against PIK3CG (human), 6.00 to 7.00; at PIK3CD (Human), above 7.00.

Take `C[C@H](NC(=O)c1c(N)nn2cccnc12)c1cc2cccc(Cl)c2c(=O)n1-c1ccc(F)cc1`: the figures for the pIC50 at PIK3CB (Human), against PIK3CG (human) and at PIK3CD (Human) were 6.00 to 7.00, above 7.00 and above 7.00, respectively.

In turn, `C[C@H](NC(=O)c1nc(-c2cccc(S(=O)(=O)N3CCCC3)c2)cnc1N)c1cc2cccc(Cl)c2c(=O)n1-c1ccccc1` showed a pIC50 at PIK3CA (human) of at most 5.00.

On to `C[C@H](NC(=O)c1c(N)nn2cccnc12)c1cc2cccc(C(F)(F)F)c2c(=O)n1-c1ccccc1`, for which the pIC50 was at most 5.00 on PIK3CA (human), 6.00 to 7.00 at PIK3CG (human) and above 7.00 against PIK3CD (Human).

On to `C[C@H](NC(=O)c1c(N)nn2cccnc12)c1cc2cccc(CO)c2c(=O)n1-c1ccccc1`, for which the pIC50 against PIK3CA (human) is at most 5.00; at PIK3CG (human), 6.00 to 7.00; against PIK3CD (Human) it was 6.00 to 7.00.

Take `COc1ccc(-c2cnc(N)c(C(=O)N[C@@H](C)c3cc4cccc(Cl)c4c(=O)n3-c3ccccc3)n2)cc1NS(C)(=O)=O`: the pIC50 against PIK3CA (human) is 6.00 to 7.00; at PIK3CB (Human) it was 6.00 to 7.00; against PIK3CG (human), above 7.00; at PIK3CD (Human) it was above 7.00.

The record behind these values is the Kinase Knowledgebase extract (Sharma et al. 2016).
